In US12077503B2, “Substituted cyclic amides and their use as herbicides” (FMC CORPORATION, priority 2015, dated 2024):

Columns and labels:
Assay type in all cases: in vivo
[1] = tested on: ivy-leaved morning glory (Ipomoea hederacea); assay: Test G Pre-Emergence Protocol; details: Ipomoea, pre-emergence, 312 h, evaluated after 13 days; for pest or weed control at 15.625 g/ha: 15.625 g ai/ha; for pest or weed control at 15.625 g/ha / pest or weed control at 250 g/ha: read-out: Morningglory, Ivy-leaved damage rating (100=total damage to plant; 0=no damage to plant); for pest or weed control at 62.5 g/ha: 62.5 g ai/ha, 100=total damage to plant, 0=no damage to plant, read-out: Morningglory, Ivy-leaved damage rating; for pest or weed control at 250 g/ha: 250 g ai/ha
Procedure, shortened: (§1)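 Scores are visual damage ratings from 0 (no damage) to 100 (total plant kill), taken 13 days after treatment. Compound was sprayed one day post-sowing at 15.625, 62.5 or 250 g/ha in 50:50 acetone/water with 0.5% Tween 20.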

[2] = tested on: corn (Zea mays); assay: Test G Pre-Emergence Protocol; details: Zea mays, pre-emergence, 312 h, evaluated after 13 days; for plant injury at 15.625 g/ha: 15.625 g ai/ha; for plant injury at 15.625 g/ha / plant injury at 250 g/ha: read-out: Corn damage rating (100=total damage to plant; 0=no damage to plant); for plant injury at 62.5 g/ha: 62.5 g ai/ha, 100=total damage to plant, 0=no damage to plant, read-out: Corn damage rating; for plant injury at 250 g/ha: 250 g ai/ha
Procedure, shortened: as §1

[3] = tested on: velvetleaf (Abutilon theophrasti); assay: Test G Pre-Emergence Protocol; details: Abutilon theophrasti, pre-emergence, 312 h, evaluated after 13 days; for pest or weed control at 15.625 g/ha: 15.625 g ai/ha; for pest or weed control at 15.625 g/ha / pest or weed control at 250 g/ha: read-out: Velvetleaf damage rating (100=total damage to plant; 0=no damage to plant); for pest or weed control at 62.5 g/ha: 62.5 g ai/ha, 100=total damage to plant, 0=no damage to plant, read-out: Velvetleaf damage rating; for pest or weed control at 250 g/ha: 250 g ai/ha
Procedure, shortened: as §1

[4] = tested on: barnyardgrass (Echinochloa crus-galli); assay: Test G Pre-Emergence Protocol; details: Echinochloa crus-galli, pre-emergence, 312 h, evaluated after 13 days; for pest or weed control at 15.625 g/ha: 15.625 g ai/ha; for pest or weed control at 15.625 g/ha / pest or weed control at 250 g/ha: read-out: Barnyardgrass damage rating (100=total damage to plant; 0=no damage to plant); for pest or weed control at 62.5 g/ha: 62.5 g ai/ha, 100=total damage to plant, 0=no damage to plant, read-out: Barnyardgrass damage rating; for pest or weed control at 250 g/ha: 250 g ai/ha
Procedure, shortened: as §1

[5] = tested on: redroot pigweed (Amaranthus retroflexus); assay: Test G Pre-Emergence Protocol; details: Amaranthus retroflexus, pre-emergence, 312 h, evaluated after 13 days; for pest or weed control at 15.625 g/ha: 15.625 g ai/ha; for pest or weed control at 15.625 g/ha / pest or weed control at 250 g/ha: read-out: Pigweed, Redroot damage rating (100=total damage to plant; 0=no damage to plant); for pest or weed control at 62.5 g/ha: 62.5 g ai/ha, 100=total damage to plant, 0=no damage to plant, read-out: Pigweed, Redroot damage rating; for pest or weed control at 250 g/ha: 250 g ai/ha
Procedure, shortened: as §1

[6] = tested on: giant foxtail (Setaria faberi); assay: Test G Pre-Emergence Protocol; details: Setaria faberi, pre-emergence, 312 h, evaluated after 13 days; for pest or weed control at 15.625 g/ha: 15.625 g ai/ha; for pest or weed control at 15.625 g/ha / pest or weed control at 250 g/ha: read-out: Foxtail, Giant damage rating (100=total damage to plant; 0=no damage to plant); for pest or weed control at 62.5 g/ha: 62.5 g ai/ha, 100=total damage to plant, 0=no damage to plant, read-out: Foxtail, Giant damage rating; for pest or weed control at 250 g/ha: 250 g ai/ha
Procedure, shortened: as §1

[7] = tested on: ivy-leaved morning glory (Ipomoea hederacea); assay: Test G Post-Emergence Protocol; details: Ipomoea, post-emergence, 312 h, read-out: Morningglory, Ivy-leaved damage rating; for pest or weed control at 15.625 g/ha: 15.625 g ai/ha, evaluated after 13 days (100=total damage to plant; 0=no damage to plant); for pest or weed control at 62.5 g/ha: 62.5 g ai/ha; for pest or weed control at 62.5 g/ha / pest or weed control at 250 g/ha: evaluated after 13 days, 100=total damage to plant, 0=no damage to plant; for pest or weed control at 250 g/ha: 250 g ai/ha
Procedure, shortened: (§2)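 Post-emergence herbicidal damage, scored visually 0–100 at 13 days. Application at 15.625, 62.5 or 250 g/ha onto 8-day-old plants grown under glasshouse control.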

[8] = tested on: corn (Zea mays); assay: Test G Post-Emergence Protocol; details: Zea mays, post-emergence, 312 h, read-out: Corn damage rating; for plant injury at 15.625 g/ha: 15.625 g ai/ha, evaluated after 13 days (100=total damage to plant; 0=no damage to plant); for plant injury at 62.5 g/ha: 62.5 g ai/ha; for plant injury at 62.5 g/ha / plant injury at 250 g/ha: evaluated after 13 days, 100=total damage to plant, 0=no damage to plant; for plant injury at 250 g/ha: 250 g ai/ha
Procedure, shortened: as §2

[9] = tested on: velvetleaf (Abutilon theophrasti); assay: Test G Post-Emergence Protocol; details: Abutilon theophrasti, post-emergence, 312 h, read-out: Velvetleaf damage rating; for pest or weed control at 15.625 g/ha: 15.625 g ai/ha, evaluated after 13 days (100=total damage to plant; 0=no damage to plant); for pest or weed control at 62.5 g/ha: 62.5 g ai/ha; for pest or weed control at 62.5 g/ha / pest or weed control at 250 g/ha: evaluated after 13 days, 100=total damage to plant, 0=no damage to plant; for pest or weed control at 250 g/ha: 250 g ai/ha
Procedure, shortened: as §2

[10] = tested on: barnyardgrass (Echinochloa crus-galli); assay: Test G Post-Emergence Protocol; details: Echinochloa crus-galli, post-emergence, 312 h, read-out: Barnyardgrass damage rating; for pest or weed control at 15.625 g/ha: 15.625 g ai/ha, evaluated after 13 days (100=total damage to plant; 0=no damage to plant); for pest or weed control at 62.5 g/ha: 62.5 g ai/ha; for pest or weed control at 62.5 g/ha / pest or weed control at 250 g/ha: evaluated after 13 days, 100=total damage to plant, 0=no damage to plant; for pest or weed control at 250 g/ha: 250 g ai/ha
Procedure, shortened: as §2

[11] = tested on: redroot pigweed (Amaranthus retroflexus); assay: Test G Post-Emergence Protocol; details: Amaranthus retroflexus, post-emergence, 312 h, read-out: Pigweed, Redroot damage rating; for pest or weed control at 15.625 g/ha: 15.625 g ai/ha, evaluated after 13 days (100=total damage to plant; 0=no damage to plant); for pest or weed control at 62.5 g/ha: 62.5 g ai/ha; for pest or weed control at 62.5 g/ha / pest or weed control at 250 g/ha: evaluated after 13 days, 100=total damage to plant, 0=no damage to plant; for pest or weed control at 250 g/ha: 250 g ai/ha
Procedure, shortened: as §2

[12] = tested on: giant foxtail (Setaria faberi); assay: Test G Post-Emergence Protocol; details: Setaria faberi, post-emergence, 312 h, read-out: Foxtail, Giant damage rating; for pest or weed control at 15.625 g/ha: 15.625 g ai/ha, evaluated after 13 days (100=total damage to plant; 0=no damage to plant); for pest or weed control at 62.5 g/ha: 62.5 g ai/ha; for pest or weed control at 62.5 g/ha / pest or weed control at 250 g/ha: evaluated after 13 days, 100=total damage to plant, 0=no damage to plant; for pest or weed control at 250 g/ha: 250 g ai/ha
Procedure, shortened: as §2

SMILES | pest or weed control at 15.625 g/ha [1] [%] | pest or weed control at 62.5 g/ha [1] [%] | pest or weed control at 250 g/ha [1] [%] | plant injury at 15.625 g/ha [2] [%] | plant injury at 62.5 g/ha [2] [%] | plant injury at 250 g/ha [2] [%] | pest or weed control at 15.625 g/ha [3] [%] | pest or weed control at 62.5 g/ha [3] [%] | pest or weed control at 250 g/ha [3] [%] | pest or weed control at 15.625 g/ha [4] [%] | pest or weed control at 62.5 g/ha [4] [%] | pest or weed control at 250 g/ha [4] [%] | pest or weed control at 15.625 g/ha [5] [%] | pest or weed control at 62.5 g/ha [5] [%] | pest or weed control at 250 g/ha [5] [%] | pest or weed control at 15.625 g/ha [6] [%] | pest or weed control at 62.5 g/ha [6] [%] | pest or weed control at 250 g/ha [6] [%] | pest or weed control at 15.625 g/ha [7] [%] | pest or weed control at 62.5 g/ha [7] [%] | other results
CN1C[C@H](c2ccc(C(F)(F)F)cc2)[C@@H](C(=O)Nc2cccnc2[S+](C)[O-])C1=O (mixture of isomers) [Compound 1788] | 0 | 0 | 0 | 0 | 0 | 0 | 0 | 0 | 0 | 0 | 0 | 20 | 0 | 0 | 0 | 0 | 0 | 0 | 0 | 0 | pest or weed control at 250 g/ha [7]: 40%; plant injury at 15.625 g/ha [8]: 0%; plant injury at 62.5 g/ha [8]: 10%; plant injury at 250 g/ha [8]: 10%; pest or weed control at 15.625 g/ha [9]: 0%; pest or weed control at 62.5 g/ha [9]: 10%; pest or weed control at 250 g/ha [9]: 20%; pest or weed control at 15.625 g/ha [10]: 0%; pest or weed control at 62.5 g/ha [10]: 0%; pest or weed control at 250 g/ha [10]: 0%; pest or weed control at 15.625 g/ha [11]: 0%; pest or weed control at 62.5 g/ha [11]: 10%; pest or weed control at 250 g/ha [11]: 20%; pest or weed control at 15.625 g/ha [12]: 0%; pest or weed control at 62.5 g/ha [12]: 0%; pest or weed control at 250 g/ha [12]: 0%
CN1C[C@H](c2ccc(C(F)(F)F)cc2)[C@@H](C(=O)Nc2cccc(Cl)c2S(C)(=O)=O)C1=O (racemic) [Compound 1661] | 0 | 0 | 10 | 0 | 0 | 10 | 0 | 0 | 0 | 0 | 0 | 0 | 0 | 0 | 20 | 0 | 50 | 80 | 0 | 0 | pest or weed control at 250 g/ha [7]: 0%; plant injury at 15.625 g/ha [8]: 0%; plant injury at 62.5 g/ha [8]: 0%; plant injury at 250 g/ha [8]: 0%; pest or weed control at 15.625 g/ha [9]: 0%; pest or weed control at 62.5 g/ha [9]: 0%; pest or weed control at 250 g/ha [9]: 10%; pest or weed control at 15.625 g/ha [10]: 0%; pest or weed control at 62.5 g/ha [10]: 20%; pest or weed control at 250 g/ha [10]: 10%; pest or weed control at 15.625 g/ha [11]: 0%; pest or weed control at 62.5 g/ha [11]: 20%; pest or weed control at 250 g/ha [11]: 40%; pest or weed control at 15.625 g/ha [12]: 0%; pest or weed control at 62.5 g/ha [12]: 60%; pest or weed control at 250 g/ha [12]: 60%
